# According to US8524493B2, “Released cytokeratins as markers for epithelial cells” (Centre Hospitalier Universitaire de Montpellier, priority 2006, dated 2013):
# Test system: CK19 protein release by viable epithelial cells (cell lines)
# Experiment: CK19-EPISPOT assay with cycloheximide in cell-cultures
# Format: cell-based, human
# Conditions: cell lines incubated with 50 μg/mL cycloheximide during the incubation step of the EPISPOT assay
# Method: EPISPOT assays. Immobilon-P membrane 96-well plates (MAIPN450, Millipore Corporation, Bedford, Mass.) were coated overnight at 4° C. with the anti-CK19 mAb Ks19.1 (6 μg/mL) (Progen Biotechnik GMBH, Heidelberg, […].). Unbound mAb were removed by washing three times with PBS. The plates were then blocked with PBS supplemented with 5% FCS (Sigma, Chemical Co., Saint Louis, Mo.) for 1 h at room temperature and washed three times with PBS. To block protein synthesis, cell lines were incubated with 50 μg/mL of cycloheximide during the EPISPOT assay. Subsequently, viable cells were counted in a Kovac slide with trypan blue dye exclusion staining and finally plated in three replicate wells at different concentrations (1×10^5, 1×10^4, 1×10^3, 1×10^2, 10 and 1 cells). In addition, 5×10^4 to 1×10^5 of enriched CD45^− cells (i) from blood and bone marrow of colon and breast cancer patients, respectively, (ii) from the milk of healthy lactating women (normal primary mammary cells) or (iii) from normal and tumor colon tissues were seeded in different wells of the plates. […] Immunospots were counted by video camera imaging and computer assisted analysis (KS ELISPOT, Carl Zeiss Vision, Halbermoos, Germany). […]
smiles,measurement,value
C[C@@H]1C[C@@H]([C@H](O)CC2CC(=O)NC(=O)C2)C(=O)[C@@H](C)C1 [cycloheximide],size and number of CK19 immunospots (CK19-releasing cells),decrease in the size and the number of spots
